Measured values published in patent publication US8946445B2, “Heterocyclic molecules as apoptosis inducers” (Nanjing Allgen Pharma Co. Ltd., priority 2011, dated 2015).

What was measured:
[1] = test system: H460 non-small cell lung cancer cell line; test: cell viability (proliferation) assay, Trypan blue exclusion counting, H460; assay type: cell-based; details: H460 cells, compound @ 1 μM, 72 hours, vs 1% DMSO control
Description: (§1) Anti-oncogenic effects of the compounds of the present invention were evaluated by cell viability (proliferation) assays in H460 non-small cell lung cancer cell line and A549 human lung carcinoma cell line. H460 and A549 were purchased from ATCC (American Type Culture Collection), and they were maintained in RPMI 1640 and DMEM, respectively, with 10% fetal bovine serum. Cell lines were cultured in an incubator with 5% CO2 at 37° C.
(§2) Cells were seeded in 6-well-plates (10^5 cells/ml medium per well) and allowed them to grow for 24 hrs in the incubator. Cells were then treated with 1 μM of tested compounds. Cells treated with 1% DMSO were used as control. 72 hours after treatment, cells were removed by trypsinization and viable cell number was obtained by counting Trypan blue-excluding cells under microscope with a hemocytometer. Experiments were performed in triplicate. Statistical were carried out by analysis of variance (ANOVA) and LSD test for multiple comparisons, with p<0.05 considered significant.

[2] = test system: A549 human lung carcinoma cell line; test: cell viability (proliferation) assay, Trypan blue exclusion counting, A549; assay type: cell-based; details: A549 cells, compound @ 1 μM, 72 hours, vs 1% DMSO control
Description: as §1, §2

| SMILES | Cell Death (%) after 3-day treatment [1] | Cell Death (%) after 3-day treatment [2] |
| --- | --- | --- |
| COC1=CC(c2cc3sc(Cl)cc3[nH]2)=N/C1=C\c1[nH]c(C)cc1C [Example 2, (Z)-2-chloro-5-(2-((3,5-dimethyl-1H-pyrrol-2-yl)methylene)-3-methoxy-2H-pyrrol-5-yl)-4H-thieno[3,2-b]pyrrole] | 88.6% | 86.7% |
| COC1=CC(c2cc3ccccc3[nH]2)=N/C1=C\c1[nH]c(C)cc1C [Obatoclax] | 88.3% | 76.6% |
